Experimental data taken from US8906868B2, “Aminoglycoside derivatives” (Rempex Pharmaceuticals, Inc., priority 2010, dated 2014).
Values after ≈ are worked out from the molar mass of the structure shown. Where two headings read alike, the source gives them in different places.

Key:
ECM6006 aph(3′)-III = experiment: microbe, parasite or virus in culture; format: cell-based, Escherichia coli; settings: Escherichia coli, read-out: Compound MIC on Bacterial Strains: ECM6006 aph(3′)-III
Method: (§1) To compare microbiological activity of the test compounds, minimum inhibitory concentrations (MIC.s) were determined. Antibiotic MICs were obtained using the broth microdilution method according to Clinical and Laboratory Standards Institute (CLSI) approved guidelines (Methods for dilution antimicrobial susceptibility tests for bacteria that grow aerobically; approved standard—7th ed. CLSI document M7-A7. Clinical and Laboratory Standards Institute, Wayne, Pa., incorporated herein by reference in its entirety). Antibiotics were dissolved as specified by CLSI (Performance standards for antimicrobial susceptibility testing; Seventeenth informational supplement. CLSI document M100-S17. Clinical and Laboratory Standards Institute, Wayne, Pa., incorporated herein by reference in its entirety), and were serially diluted 2-fold in cation adjusted Mueller Hinton Broth (CaMHB) at 2× concentration. Bacterial inoculums were prepared in CaMHB by suspension of a colony from an agar plate that was prepared the previous day to obtain a final concentration of 5×10^5CFU/ml. The plates were incubated for 18 hours at 35° C. […] MIC.s were determined by reading the turbidity of plate wells using a SpectraMax Plus384 plate reader (Molecular Devices, Sunnyvale, Calif., USA) at 600 nm and were confirmed by visual inspection.
(§2) Activity of the test compounds was determined using QC strains and strains with known aminoglycoside resistance mechanisms (TABLE 3). This specific panel contained strains expressing enzymes that covalently modify N2″, N3 and N3′ positions.

ECM6009 aac(3)-II = experiment: microbe, parasite or virus in culture; format: cell-based, Escherichia coli; settings: Escherichia coli, read-out: Compound MIC on Bacterial Strains: ECM6009 aac(3)-II
Method: as §1, §2

ECM6010 ant(2″)-I = experiment: microbe, parasite or virus in culture; format: cell-based, Escherichia coli; settings: Escherichia coli, read-out: Compound MIC on Bacterial Strains: ECM6010 ant(2″)-I
Method: as §1, §2

ECM6011 aph(3′)-I = experiment: microbe, parasite or virus in culture; format: cell-based, Escherichia coli; settings: Escherichia coli, read-out: Compound MIC on Bacterial Strains: ECM6011 aph(3′)-I
Method: as §1, §2

ECM6003 rmtB = experiment: microbe, parasite or virus in culture; format: cell-based, Escherichia coli; settings: Escherichia coli; Table 3; read-out: Compound MIC on Bacterial Strains: ECM6003 rmtB
Method: as §1, §2
The panel also contained a strain expressing ribosomal RNA methylase, RmtB.

EC1002 aph(3′)-IV = experiment: organism not typed; format: cell-based; settings: read-out: Compound MIC on Bacterial Strains: EC1002 aph(3′)-IV
Method: as §1, §2

EC1001 acc(6′)-Ib = experiment: microbe, parasite or virus in culture; format: cell-based, Escherichia coli; settings: Escherichia coli; Table 4; read-out: Compound MIC on Bacterial Strains: Escherichia coli EC1001 acc(6′)-Ib
Method: as §1

[1] = tested on: ECM6007 aac(6′) + aph(2″); experiment: microbe, parasite or virus in culture; format: cell-based, Escherichia coli; settings: Escherichia coli, 18 h; Table 4; read-out: Compound MIC on Bacterial Strains: Escherichia coli ECM6007 aac(6′) + aph(2″)
Method: as §1

ACM1005 ATCC 19004 = experiment: MIC, broth microdilution; format: cell-based, Acinetobacter baumannii; settings: Acinetobacter baumannii, ATCC19004; Table 4; read-out: Compound MIC on Bacterial Strains: Acinetobacter baumannii ACM1005 ATCC 19004
Method: as §1

ACM1006 acc(6′)-Ib = experiment: microbe, parasite or virus in culture; format: cell-based, Acinetobacter baumannii; settings: Acinetobacter baumannii; Table 4; read-out: Compound MIC on Bacterial Strains: Acinetobacter baumannii ACM1006 acc(6′)-Ib
Method: as §1

Sa 287 aac(6′) + aph(2″) = experiment: microbe, parasite or virus in culture; format: cell-based, Staphylococcus aureus; settings: Staphylococcus aureus, 18 h; Table 5; read-out: Compound MIC on Bacterial Strains: Staphylococcus aureus Sa 287 aac(6′) + aph(2″)
Method: as §1

[2] = tested on: Escherichia coli (ATCC 25922); experiment: MIC, broth microdilution; settings: Escherichia coli
[3] = tested on: Staphylococcus aureus (ATCC 29213); experiment: MIC, broth microdilution; settings: Staphylococcus aureus
[4] = tested on: Klebsiella pneumonia (ATCC 43816); experiment: MIC, broth microdilution; settings: Klebsiella pneumoniae, ATCC43816, read-out: Compound MIC on Bacterial Strains: K. pneumonia ATCC 43816
[5] = tested on: Pseudomonas aeruginosa (ATCC 27853); experiment: MIC, broth microdilution; settings: Pseudomonas aeruginosa
[6] = tested on: Acinetobacter baumannii (ATCC 19606); experiment: MIC, broth microdilution; settings: Acinetobacter baumannii, ATCC19606, read-out: Compound MIC on Bacterial Strains: A. baumannii ATCC 19606
PAM3072 aac(6′)-II = experiment: microbe, parasite or virus in culture; format: cell-based, Pseudomonas aeruginosa; settings: Pseudomonas aeruginosa, Table 5; read-out: Compound MIC on Bacterial Strains: Pseudomonas aeruginosa PAM3072 aac(6′)-II
Method: as §1

PAM3073 aac(6′)-I = experiment: microbe, parasite or virus in culture; format: cell-based, Pseudomonas aeruginosa; settings: Pseudomonas aeruginosa, Table 5; read-out: Compound MIC on Bacterial Strains: Pseudomonas aeruginosa PAM3073 aac(6′)-I
Method: as §1

[7] = ATCC25922, read-out: Compound MIC on Bacterial Strains: E. coli ATCC 25922
[8] = ATCC25922, read-out: Compound MIC on Bacterial Strains: ECM6000 ATCC 25922
[9] = ATCC25922, read-out: Compound MIC on Bacterial Strains: Escherichia coli ECM6000 ATCC 25922
[10] = ATCC29213, read-out: Compound MIC on Bacterial Strains: S. aureus ATCC 29213, QC strain, Table 2
[11] = ATCC29213, read-out: Compound MIC on Bacterial Strains: Staphylococcus aureus SAM1000 ATCC 29213, Table 5
[12] = ATCC27853, read-out: Compound MIC on Bacterial Strains: P. aeruginosa ATCC 27853
[13] = ATCC27853, read-out: Compound MIC on Bacterial Strains: Pseudomonas aeruginosa PAM3034 ATCC 27853

Compound	MIC (ECM6006 aph(3′)-III) [µg/mL]	MIC (ECM6009 aac(3)-II) [µg/mL]	MIC (ECM6010 ant(2″)-I) [µg/mL]	MIC (ECM6011 aph(3′)-I) [µg/mL]	MIC (ECM6003 rmtB) [µg/mL]	MIC (EC1002 aph(3′)-IV) [µg/mL]	MIC (EC1001 acc(6′)-Ib) [µg/mL]	MIC [1] [µg/mL]	MIC (ACM1005 ATCC 19004) [µg/mL]	MIC (ACM1006 acc(6′)-Ib) [µg/mL]	MIC [2, 7] [µg/mL]	MIC [2, 8] [µg/mL]	MIC [2, 9] [µg/mL]	MIC [3, 10] [µg/mL]	MIC [3, 11] [µg/mL]	MIC [4] [µg/mL]	MIC [5, 12] [µg/mL]	MIC [5, 13] [µg/mL]	MIC [6] [µg/mL]	MIC (PAM3072 aac(6′)-II) [µg/mL]	other results
NCC[C@H](O)C(=O)N[C@@H]1C[C@H](N)[C@@H](O[C@H]2O[C@H](CN)[C@@H](O)[C@H](O)[C@H]2O)[C@H](O)[C@H]1O[C@H]1O[C@H](CO)[C@@H](O)[C@H](N)[C@H]1O [Amikacin, reference compound]	1 to 8 (≈ 1.71 to 13.7 µM)	< 1	1 to 8 (≈ 1.71 to 13.7 µM)	1 to 8 (≈ 1.71 to 13.7 µM)	> 8	> 8	> 8	< 1	< 1	1 to 8 (≈ 1.71 to 13.7 µM)	1 to 8 (≈ 1.71 to 13.7 µM)	1 to 8 (≈ 1.71 to 13.7 µM)	1 to 8 (≈ 1.71 to 13.7 µM)	1 to 8 (≈ 1.71 to 13.7 µM)	< 1	< 1	1 to 8 (≈ 1.71 to 13.7 µM)	1 to 8 (≈ 1.71 to 13.7 µM)	1 to 8 (≈ 1.71 to 13.7 µM)		MIC (Sa 287 aac(6′) + aph(2″)): > 8 µg/mL
CN[C@@H]1C(O)[C@@H](OC2C(O)C(O[C@H]3O[C@H](CN)CCC3N)[C@@H](N)C[C@H]2NC(=N)CO)OCC1(C)O (stereo partly drawn) [Compound 22, N-((1R,2S,3S,4R,5S)-5-amino-4-((2R,3R,6S)-3-amino-6-(aminomethyl)tetrahydro-2H-pyran-2-vlxy)-2-((2R,3R,4R,5R)-3,5-dihydroxy-5-methyl-4-(methylamino)tetrahydro-2H-pyran-2-yloxy)-3-hydroxycyclohexyl)-2-hydroxy acetimidamide]	1 to 8 (≈ 1.97 to 15.8 µM)	> 8	> 8	1 to 8 (≈ 1.97 to 15.8 µM)	> 8	1 to 8 (≈ 1.97 to 15.8 µM)	> 8	1 to 8	1 to 8 (≈ 1.97 to 15.8 µM)	> 8	1 to 8 (≈ 1.97 to 15.8 µM)	1 to 8 (≈ 1.97 to 15.8 µM)	1 to 8 (≈ 1.97 to 15.8 µM)	< 1	< 1	< 1	< 1	1 to 8 (≈ 1.97 to 15.8 µM)	> 8	> 8	MIC (PAM3073 aac(6′)-I): 1 to 8 µg/mL (≈ 1.97 to 15.8 µM)
CN[C@@H]1[C@@H](O)[C@@H](O[C@@H]2[C@@H](O)[C@H](O[C@H]3O[C@H](CNCCO)CC[C@H]3N)[C@@H](N)C[C@H]2NC(=O)[C@@H](O)CCCN)OC[C@]1(C)O [Compound 40, (S)-5-amino-N-((1R,2S,3S,4R,5S)-5-amino-4-((2R,3R,6S)-3-amino-6-((2-hydroxyethylamino)methyl)tetrahydro-2H-pyran-2-yloxy)-2-((2R,3R,4R,5R)-3,5-dihydroxy-5-methyl-4-(methylamino)tetrahydro-2H-pyran-2-yloxy)-3-hydroxycyclohexyl)-2-hydroxypentanamide]	1 to 8 (≈ 1.64 to 13.1 µM)	< 1	< 1	< 1	> 8	1 to 8 (≈ 1.64 to 13.1 µM)	1 to 8 (≈ 1.64 to 13.1 µM)	< 1	1 to 8 (≈ 1.64 to 13.1 µM)	1 to 8 (≈ 1.64 to 13.1 µM)	1 to 8 (≈ 1.64 to 13.1 µM)	1 to 8 (≈ 1.64 to 13.1 µM)	1 to 8 (≈ 1.64 to 13.1 µM)	1 to 8 (≈ 1.64 to 13.1 µM)	1 to 8 (≈ 1.64 to 13.1 µM)	< 1	> 8	> 8	> 8	> 8	MIC (PAM3073 aac(6′)-I): 1 to 8 µg/mL (≈ 1.64 to 13.1 µM)
CN[C@@H]1[C@@H](O)[C@@H](O[C@@H]2[C@@H](O)[C@H](O[C@H]3O[C@H](CNCCO)CC[C@H]3N)[C@@H](N)C[C@H]2NC(=O)C2(O)CNC2)OC[C@]1(C)O [Compound 43, N-((1R,2S,3S,4R,5S)-5-amino-4-((2R,3R,6S)-3-amino-6-((2-hydroxyethylamino)methyl)tetrahydro-2H-pyran-2-yloxy)-2-((2R,3R,4R,5R)-3,5-dihydroxy-5-methyl-4-(methylamino)tetrahydro-2H-pyran-2-yloxy)-3-hydroxycyclohexyl)-3-hydroxyazetidine-3-carboxamide]	< 1	1 to 8 (≈ 1.69 to 13.5 µM)	< 1	< 1	> 8	1 to 8 (≈ 1.69 to 13.5 µM)	1 to 8 (≈ 1.69 to 13.5 µM)	< 1	1 to 8 (≈ 1.69 to 13.5 µM)	< 1	< 1	< 1	< 1	< 1	< 1	< 1	1 to 8 (≈ 1.69 to 13.5 µM)	1 to 8 (≈ 1.69 to 13.5 µM)	> 8	> 8	MIC (PAM3073 aac(6′)-I): 1 to 8 µg/mL (≈ 1.69 to 13.5 µM)
CN[C@@H]1[C@@H](O)[C@@H](O[C@@H]2[C@@H](O)[C@H](O[C@H]3O[C@H](CNCCF)CC[C@H]3N)[C@@H](N)C[C@H]2NC(=O)[C@@H](O)CN)OC[C@]1(C)O [Compound 46, (S)-3-amino-N-((1R,2S,3S,4R,5S)-5-amino-4-((2R,3R,6S)-3-amino-6-((2-fluoroethylamino)methyl)tetrahydro-2H-pyran-2-yloxy)-2-((2R,3R,4R,5R)-3,5-dihydroxy-5-methyl-4-(methylamino)tetrahydro-2H-pyran-2-yloxy)-3-hydroxycyclohexyl)-2-hydroxypropanamide]	< 1	< 1	< 1	< 1	> 8	< 1	1 to 8 (≈ 1.72 to 13.7 µM)	< 1	1 to 8 (≈ 1.72 to 13.7 µM)	1 to 8 (≈ 1.72 to 13.7 µM)	< 1	< 1	< 1	< 1	< 1	< 1	1 to 8 (≈ 1.72 to 13.7 µM)	1 to 8 (≈ 1.72 to 13.7 µM)	> 8	> 8	MIC (PAM3073 aac(6′)-I): 1 to 8 µg/mL (≈ 1.72 to 13.7 µM)
CCN[C@@H]1C[C@H](N)[C@@H](O[C@H]2OC(CN)=CC[C@H]2N)[C@H](O)[C@H]1O[C@H]1OC[C@](C)(O)[C@H](NC)[C@H]1O [Netilmicin, reference compound]	< 1	> 8	< 1	< 1	> 8	< 1	> 8	< 1	1 to 8 (≈ 2.1 to 16.8 µM)	> 8	< 1	< 1	< 1	< 1	< 1	< 1	1 to 8 (≈ 2.1 to 16.8 µM)	1 to 8 (≈ 2.1 to 16.8 µM)	> 8	> 8	MIC (PAM3073 aac(6′)-I): > 8 µg/mL
